In paper PMC5063977 (The Journal of Biological Chemistry, 2016):

Legend:
RAMP2-CLR (AM1 receptor) = target: T1, RAMP2-CLR (AM1 receptor) (Homo sapiens, UniProt O60895+Q16602); experiment: cAMP accumulation, HEK-293 cells, RAMP2 + CLR; format: cell-based; details: mean ± S.E.
T1 construct: FLAG; expressed in transfected cells; host or cells: HEK-293 or HEK-293S cells, transient transfection, 1:1 RAMP:CLR
Experimental: HEK-293 cells were transfected with FuGENE 6 (Roche Applied Science) in accordance with the manufacturer's instructions using a 1:3 (w:v) DNA:FuGENE ratio and a 1:1 ratio of RAMP to CLR. […] The transfected cell lines were grown for 24–48 h prior to assaying.
The transfected HEK-293 cells were washed in PBS, resuspended in stimulation buffer (PBS containing 0.1% BSA and 0.5 mM IBMX), and seeded at 2000 cells/well in 384-well white Optiplates. Ligands were added in the range of 1 pM to 1 mM, and cAMP accumulation was measured after 30 min of stimulation using a LANCE® cAMP detection kit (PerkinElmer Life Sciences). […] Plates were read using a Mithras LB 940 multimode microplate reader (Berthold Technologies). […] Values were converted to concentration using a cAMP standard curve performed in parallel.
Data analysis for cAMP assays was performed in GraphPad Prism 6.0f (San Diego, CA). Data were fitted to obtain concentration-response curves using either the three-parameter logistic equation (for pEC50 values) or the operational model for partial agonism ([34]) to obtain values of efficacy (log τ) and the equilibrium dissociation constant (log Ka). These values were then used to quantify signaling bias as change in log (τ/Ka) relative to the natural cognate ligand for the respective receptor ([41]). […] Statistical differences were analyzed using one-way ANOVA or Student's t test as appropriate with post hoc Bonferroni's or Dunnett's multiple comparisons, and p < 0.05 was considered significant. […] For RT-PCR, normalization to the internal standard GAPDH was performed to reduce variance and enable a comparison between different cell lines. To quantitate the ligand-dependent response in the yeast system, a strain lacking GPA1 (MMY11), grown in rich medium, was used as a standard ([72]). As GPA1 is not present in this strain, the Gβγ subunits are unregulated and free to signal, allowing us to determine the maximal response of our system. […] For the mammalian cell-based assays, data analysis was carried out as for the yeast curves. […]

RAMP3-CLR (AM2 receptor) = target: T2, RAMP3-CLR (AM2 receptor) (Homo sapiens, UniProt O60896+Q16602); experiment: (Ca^2+)i mobilization, HEK-293 cells, RAMP3 + CLR; format: cell-based; details: HEK293, percentage of maximal (Ca^2+)i release with 10 μM ionomycin, mean ± S.E., n = 5
T2 construct: FLAG; expressed in transfected cells; host or cells: HEK-293 or HEK-293S cells, transient transfection, 1:1 RAMP:CLR
T2 sequence (Q16602 23-461): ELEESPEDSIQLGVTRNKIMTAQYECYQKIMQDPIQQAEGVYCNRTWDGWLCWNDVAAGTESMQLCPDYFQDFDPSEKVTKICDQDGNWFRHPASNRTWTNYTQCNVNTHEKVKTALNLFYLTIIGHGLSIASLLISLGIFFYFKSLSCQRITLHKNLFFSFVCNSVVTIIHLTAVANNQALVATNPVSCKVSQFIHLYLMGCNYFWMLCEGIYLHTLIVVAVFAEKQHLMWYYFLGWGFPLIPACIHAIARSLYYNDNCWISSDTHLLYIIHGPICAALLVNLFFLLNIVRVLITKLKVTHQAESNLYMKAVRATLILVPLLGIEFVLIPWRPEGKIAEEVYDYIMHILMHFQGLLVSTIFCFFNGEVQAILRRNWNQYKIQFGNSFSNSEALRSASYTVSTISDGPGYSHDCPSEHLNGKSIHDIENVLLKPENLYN
T2 sequence (O60896 24-148): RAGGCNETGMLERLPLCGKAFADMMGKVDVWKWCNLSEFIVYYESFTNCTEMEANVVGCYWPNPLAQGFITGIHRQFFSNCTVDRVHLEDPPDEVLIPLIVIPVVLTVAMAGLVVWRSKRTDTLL
Experimental: HEK-293 cells, provided by Dr. Jügen Müller (University of Aston), were cultured in DMEM supplemented with 10% heat-inactivated FBS and kept at 37 °C in a humidified 95% air, 5% CO2 incubator. HEK-293S cells (a gift from AstraZeneca) were cultured in DMEM supplemented with 8% heat-inactivated FBS and kept at 37 °C in a humidified 95% air, 5% CO2 incubator. HEK-293 cells were transfected with FuGENE 6 (Roche Applied Science) in accordance with the manufacturer's instructions using a 1:3 (w:v) DNA:FuGENE ratio and a 1:1 ratio of RAMP to CLR. HEK-293S cells were seeded into 96-well poly-D-lysine-coated plates at a density of 15,000 cells/well (determined using a Countess^TM cell counter, Invitrogen) 1 day prior to transfection. HEK-293S cells were transiently transfected as described previously ([38]) using a 1:1 ratio of RAMP to CLR. The transfected cell lines were grown for 24–48 h prior to assaying.
Transfected HEK-293 cells were grown to confluence in black, clear bottomed, 96-well plates. […] Ligands were added robotically using a Mithras LB 940 multimode microplate reader in the range of 10 pM to 1 μM, and fluorescence was determined immediately post-injection with an excitation wavelength set to 485 nm and an emission wavelength set to 535 nm. […] Peak magnitude was calculated using five-point smoothing followed by correction against background fluorescence. […]

T1 sequence (Q16602 23-461): as the sequence (Q16602 23-461) above
T1 sequence (O60895 43-175): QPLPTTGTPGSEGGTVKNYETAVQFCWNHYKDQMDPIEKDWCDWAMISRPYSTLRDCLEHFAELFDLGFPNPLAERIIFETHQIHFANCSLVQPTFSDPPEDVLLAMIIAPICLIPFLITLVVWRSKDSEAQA

Row | SMILES | Emax (RAMP2-CLR (AM1 receptor); HEK293, PTX treated (200 ng/ml, 16 h), percentage of maximal cAMP with 100 μM forskolin in presence of PTX, n = 6 (Table 3)) [%] | Emax (RAMP2-CLR (AM1 receptor); HEK293, percentage of maximal cAMP with 100 μM forskolin, HEK-293, 30 min, n = 8 (Table 2)) [%] | Emax (RAMP2-CLR (AM1 receptor); HEK293, untreated, percentage of maximal cAMP with 100 μM forskolin in presence of PTX, n = 9 (Table 3)) [%] | Emax (RAMP3-CLR (AM2 receptor)) [%]
1 | CSCC[C@H](NC(=O)[C@H](CC(C)C)NC(=O)[C@H](CCC(N)=O)NC(=O)[C@H](Cc1c[nH]c2ccccc12)NC(=O)[C@H](CC(C)C)NC(=O)[C@H](CCCNC(=N)N)NC(=O)[C@H](Cc1c[nH]cn1)NC(=O)[C@H](CO)NC(=O)[C@H](CC(C)C)NC(=O)[C@H](CC(N)=O)NC(=O)[C@H](CCC(N)=O)NC(=O)[C@@H](NC(=O)[C@H](CCC(N)=O)NC(=O)[C@@H]1CSSC[C@H](NC(=O)CNC(=O)[C@@H](NC(=O)[C@H](CCCNC(=N)N)NC(=O)[C@H](CC(C)C)NC(=O)[C@H](CC(C)C)NC(=O)[C@H](CCC(N)=O)NC(=O)[C@H](C)NC(=O)[C@H](CCC(N)=O)NC(=O)[C@@H](N)[C@@H](C)O)C(C)C)C(=O)N[C@@H](C(C)C)C(=O)N[C@@H](CC(C)C)C(=O)NCC(=O)N[C@@H]([C@@H](C)O)C(=O)N1)C(C)C)C(=O)NCC(=O)N1CCC[C@H]1C(=O)N[C@@H](C)C(=O)NCC(=O)N[C@@H](CCCNC(=N)N)C(=O)N[C@@H](CCC(N)=O)C(=O)N[C@@H](CC(=O)O)C(=O)N[C@@H](CO)C(=O)N[C@@H](C)C(=O)N1CCC[C@H]1C(=O)N[C@H](C(=O)N[C@@H](CC(=O)O)C(=O)N1CCC[C@H]1C(=O)N[C@@H](CO)C(=O)N[C@@H](CO)C(=O)N1CCC[C@H]1C(=O)N[C@@H](Cc1c[nH]cn1)C(=O)N[C@@H](CO)C(=O)N[C@@H](Cc1ccc(O)cc1)C(N)=O)C(C)C [AM2, adrenomedullin 2] | 56 ± 2.2 | 34.1 ± 4 | 36.6 ± 3.5 | –
2 | CC[C@H](C)[C@H](NC(=O)[C@H](CCC(N)=O)NC(=O)[C@H](Cc1c[nH]cn1)NC(=O)[C@H](C)NC(=O)[C@H](CC(C)C)NC(=O)[C@H](CCCCN)NC(=O)[C@H](CCC(N)=O)NC(=O)[C@@H](NC(=O)[C@@H](NC(=O)[C@@H]1CSSC[C@H](NC(=O)CNC(=O)[C@H](Cc2ccccc2)NC(=O)[C@H](CO)NC(=O)[C@H](CCCNC(=N)N)NC(=O)[C@H](CC(C)C)NC(=O)CNC(=O)[C@H](CCC(N)=O)NC(=O)[C@H](Cc2ccccc2)NC(=O)[C@H](CC(N)=O)NC(=O)[C@H](CC(N)=O)NC(=O)[C@H](CCSC)NC(=O)[C@H](CO)NC(=O)[C@H](CCC(N)=O)NC(=O)[C@H](CCCNC(=N)N)NC(=O)[C@@H](N)Cc2ccc(O)cc2)C(=O)N[C@@H](CCCNC(=N)N)C(=O)N[C@@H](Cc2ccccc2)C(=O)NCC(=O)N[C@@H]([C@@H](C)O)C(=O)N1)[C@@H](C)O)C(C)C)C(=O)N[C@@H](Cc1ccc(O)cc1)C(=O)N[C@@H](CCC(N)=O)C(=O)N[C@@H](Cc1ccccc1)C(=O)N[C@H](C(=O)N[C@@H](CC(=O)O)C(=O)N[C@@H](CCCCN)C(=O)N[C@@H](CC(=O)O)C(=O)N[C@@H](CCCCN)C(=O)N[C@@H](CC(=O)O)C(=O)N[C@@H](CC(N)=O)C(=O)N[C@H](C(=O)N[C@@H](C)C(=O)N1CCC[C@H]1C(=O)N[C@@H](CCCNC(=N)N)C(=O)N[C@@H](CO)C(=O)N[C@@H](CCCCN)C(=O)N[C@H](C(=O)N[C@@H](CO)C(=O)N1CCC[C@H]1C(=O)N[C@@H](CCC(N)=O)C(=O)NCC(=O)N[C@@H](Cc1ccc(O)cc1)C(N)=O)[C@@H](C)CC)C(C)C)[C@@H](C)O [AM, adrenomedullin] | – | – | – | 56.7 ± 6.6
